PMC8983325 (Protein & Cell, 2022)

Test system: SARS-CoV-2 variants of concern (Alpha, Beta, Delta and Omicron)
Test: microbe, parasite or virus in culture
Format: cell-based
Conditions: Severe acute respiratory syndrome coronavirus 2, VeroE6/TMPRSS2, read-out: EC50 against SARS-CoV-2 VOC

Question: `O=C(Nc1ccccc1Cl)c1sc(=S)n2c1[nH]c(=O)c1ccccc12` [F0213] was tested. Which EC50 did it give?
Answer: 2.2 to 4.8 µM
